According to paper PMC9356058, “Homocysteine-targeting compounds as a new treatment strategy for diabetic wounds via inhibition of the histone methyltransferase SET7/9” (Experimental & Molecular Medicine, 2022):

Target: T1, SET7/9 (Homo sapiens, UniProt Q8WTS6)
T1 sequence (Q8WTS6 1-366): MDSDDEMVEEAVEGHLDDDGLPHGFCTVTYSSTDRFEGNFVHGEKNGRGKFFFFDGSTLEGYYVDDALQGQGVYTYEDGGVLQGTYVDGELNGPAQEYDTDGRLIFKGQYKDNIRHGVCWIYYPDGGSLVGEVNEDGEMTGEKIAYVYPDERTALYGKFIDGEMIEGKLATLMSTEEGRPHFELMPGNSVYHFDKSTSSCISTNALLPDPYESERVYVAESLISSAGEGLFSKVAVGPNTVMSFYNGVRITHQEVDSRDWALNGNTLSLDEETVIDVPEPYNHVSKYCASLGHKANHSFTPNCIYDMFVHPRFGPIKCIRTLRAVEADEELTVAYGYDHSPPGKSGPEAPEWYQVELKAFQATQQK
Experiment: fluorescence polarization, displacement of SAM-binding site probe
Parameters: gene SETD7; SET7/9 (human recombinant) assay enzyme

Nc1ncnc2c1ncn2[C@@H]1O[C@H](C[C@@H](N)CC[C@H](N)C(=O)O)[C@@H](O)[C@H]1O [Sine, 5’-deoxy-5’-(1,4-diamino-4-carboxybutyl)adenosine]
IC50: 6.17 µM
